Reference: ChEMBL document CHEMBL1136775, “Indole naphthyridinones as inhibitors of bacterial enoyl-ACP reductases FabI and FabK” (J Med Chem, 2003)
Converted amounts (≈) assume the structure as drawn.

Legend:
[1] = system: Haemophilus influenzae; assay: Antibacterial activity against Haemophilus influenzae Q1; type: functional
[2] = system: Staphylococcus aureus; assay: Antibacterial activity against Staphylococcus aureus WCUH29; type: functional
[3] = target: T1, Enoyl-[acyl-carrier-protein] reductase [NADPH] FabI (Staphylococcus aureus, UniProt Q6GI75); assay: Inhibitory activity against Enoyl-ACP reductase FabI in Staphylococcus aureus
T1 sequence (Q6GI75 whole entry): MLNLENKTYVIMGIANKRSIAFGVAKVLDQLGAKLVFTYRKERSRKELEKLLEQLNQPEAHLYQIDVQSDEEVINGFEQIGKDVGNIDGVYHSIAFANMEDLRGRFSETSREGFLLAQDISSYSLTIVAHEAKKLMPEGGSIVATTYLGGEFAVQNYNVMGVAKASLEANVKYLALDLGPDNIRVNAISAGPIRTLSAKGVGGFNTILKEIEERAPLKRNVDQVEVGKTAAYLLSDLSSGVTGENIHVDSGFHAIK

[4] = Inhibitory activity against Enoyl-ACP reductase FabI in Haemophilus influenzae
[5] = system: A549; assay: Cytotoxicity against human A549 lung cells; type: functional, cell-based
[6] = Inhibitory activity against human FASI enzyme; type: functional
[7] = system: Liposome; assay: Inhibitory activity in liposome lysis assay; type: functional, subcellular, Homo sapiens
[8] = system: Moraxella catarrhalis; assay: Antibacterial activity against Moraxella catarrhalis; type: functional
[9] = system: Escherichia coli; assay: Antibacterial activity against Escherichia coli 120AcrAB-; type: functional
[10] = system: Streptococcus pneumoniae; assay: Antibacterial activity against Streptococcus pneumoniae 1629; type: functional
[11] = Inhibitory activity against Enoyl-ACP reductase FabI in Escherichia coli; type: functional
[12] = Inhibitory activity against Enoyl-ACP reductase FabK in Streptococcus pneumoniae; type: functional
[13] = system: Enterococcus faecalis; assay: Antibacterial activity against Enterococcus faecalis I; type: functional
[14] = system: Staphylococcus aureus; assay: Inhibitory activity against Staphylococcus aureus; type: functional
[15] = system: Staphylococcus aureus; assay: Antibacterial activity against in Staphylococcus aureus WCUH29; type: functional

Row | Compound | MIC50 [1] [µg/mL] | MIC50 [2] [µg/mL] | IC50 [3] [nM] | IC50 [4] [nM] | IC50 [6] [nM] | IC50 [7] [nM] | MIC50 [8] [µg/mL] | MIC50 [9] [µg/mL] | MIC50 [10] [µg/mL] | IC50 [11] [nM] | IC50 [12] [nM] | MIC50 [13] [µg/mL] | MIC50 [15] [µg/mL] | IC50 [5] [µg/mL] | Ki [14] [nM]
1 | CC(=O)Nc1ccc(/C=C/C(=O)N(C)Cc2cc3ccccc3n2C)cn1 | 32 (≈ 88.3 µM) | 0.12 (≈ 0.331 µM) | 300 | 1300 | – | – | – | – | – | – | – | – | – | – | –
2 | Cc1cc(/C=C/C(=O)N(C)Cc2cc3ccccc3n2C)cnc1N | > 64 | 0.25 (≈ 0.748 µM) | 910 | 6100 | – | – | – | – | – | – | – | – | – | – | –
3 | CC(=O)Nc1ncc(/C=C/C(=O)N(C)Cc2cc3ccccc3n2C)cc1C | > 64 | – | 940 | 7600 | – | – | – | – | – | – | – | – | 2 (≈ 5.31 µM) | – | –
4 | Cc1cccc2c(CN(C)C(=O)/C=C/c3cnc4c(c3)CCC(=O)N4)c(C)n(C)c12 | > 64 | < 0.001 | 20 | 70 | – | – | 2 (≈ 4.97 µM) | > 64 | > 64 | < 70 | > 30000 | > 64 | – | – | –
5 | Oc1cc(Cl)ccc1Oc1ccc(Cl)cc1Cl [TRICLOSAN] | 0.5 (≈ 1.73 µM) | 0.03 (≈ 0.104 µM) | – | – | – | – | < 0.06 | 0.5 (≈ 1.73 µM) | 16 (≈ 55.3 µM) | – | > 30000 | 16 (≈ 55.3 µM) | – | – | –

Second part, led by results:

Row | MIC50 [1] [µg/mL] | MIC50 [2] [µg/mL] | IC50 [3] [nM] | IC50 [4] [nM] | IC50 [6] [nM] | IC50 [7] [nM] | MIC50 [8] [µg/mL] | MIC50 [9] [µg/mL] | MIC50 [10] [µg/mL] | IC50 [11] [nM] | IC50 [12] [nM] | MIC50 [13] [µg/mL] | MIC50 [15] [µg/mL] | Compound | IC50 [5] [µg/mL] | Ki [14] [nM]
6 | > 64 | 0.5 (≈ 1.56 µM) | – | 4200 | > 100000 | 630000 | – | – | – | – | – | – | – | CN(Cc1cc2ccccc2n1C)C(=O)/C=C/c1ccc(N)nc1 | 512 (≈ 1600 µM) | –
7 | > 64 | < 0.001 | 60 | 25 | – | – | < 0.06 | 32 (≈ 82.4 µM) | > 64 | 30 | > 30000 | > 64 | – | Cc1c(CN(C)C(=O)/C=C/c2cnc3c(c2)CCC(=O)N3)c2ccccc2n1C | – | –
8 | 16 (≈ 42.7 µM) | 0.06 (≈ 0.16 µM) | 130 | 390 | – | – | < 0.06 | 8 (≈ 21.4 µM) | 16 (≈ 42.7 µM) | 70 | 5000 | 16 (≈ 42.7 µM) | – | CN(Cc1cn(C)c2ccccc12)C(=O)/C=C/c1cnc2c(c1)CCC(=O)N2 | – | –
9 | 1 (≈ 2.67 µM) | 0.016 (≈ 0.0427 µM) | 50 | 130 | – | – | < 0.06 | 0.5 (≈ 1.34 µM) | 16 (≈ 42.7 µM) | < 60 | 3000 | 16 (≈ 42.7 µM) | – | Cc1[nH]c2ccccc2c1CN(C)C(=O)/C=C/c1cnc2c(c1)CCC(=O)N2 | – | –
10 | > 64 | 0.5 (≈ 1.39 µM) | 2300 | 2700 | – | – | – | – | – | – | – | – | – | CN(Cc1cc2ccccc2n1C)C(=O)/C=C/c1cnc2c(c1)CCCN2 | – | –
11 | 32 (≈ 85.5 µM) | 0.03 (≈ 0.0801 µM) | 50 | 560 | – | – | – | – | – | – | – | – | – | CN(Cc1cc2ccccc2n1C)C(=O)/C=C/c1cnc2c(c1)CCC(=O)N2 | – | 4.3
